Test results published in ChEMBL document CHEMBL1201862, “PubChem BioAssay data set” (2004).
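Exposure lasted 48 hours, with cells grown in 96-well plates and compounds tested at five concentrations. GI50 is the concentration that inhibits growth by half.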 Active and inactive are the calls of the source. No stated cut-off is given here; in the data, active = GI50 up to about 1.1 µM and inactive = higher.

How the values were obtained:
Test in all cases: growth of human tumour cells (NCI), 48 h
A549 = tested on: A549
BT-549 = tested on: BT-549
RXF 393 = tested on: RXF 393
T47D = tested on: T47D
Hs-578T = tested on: Hs-578T
IGROV-1 = tested on: IGROV-1
CCRF-CEM = tested on: CCRF-CEM
SF-268 = tested on: SF-268
TK-10 = tested on: TK-10
U-251 = tested on: U-251
K562 = tested on: K562
NCI-H460 = tested on: NCI-H460
OVCAR-3 = tested on: OVCAR-3
OVCAR-5 = tested on: OVCAR-5
786-0 = tested on: 786-0
NCI-H226 = tested on: NCI-H226
SN12C = tested on: SN12C
CAKI-1 = tested on: CAKI-1
DU-145 = tested on: DU-145
DMS-273 = tested on: DMS-273

Row | Structure (SMILES) | GI50 (A549) | GI50 (BT-549) | GI50 (RXF 393) | GI50 (T47D) | GI50 (Hs-578T) | GI50 (IGROV-1) | GI50 (CCRF-CEM) | GI50 (SF-268) | GI50 (TK-10) | GI50 (U-251) | GI50 (K562) | GI50 (NCI-H460) | GI50 (OVCAR-3) | GI50 (OVCAR-5) | GI50 (786-0) | GI50 (NCI-H226) | GI50 (SN12C) | GI50 (CAKI-1) | GI50 (DU-145) | GI50 (DMS-273)
1 | c1csc(-c2cc(-c3cccs3)c(-c3cccs3)s2)c1 | > 100 µM (inactive) | > 100 µM (inactive) | 61.5 µM (inactive) | 4.69 µM (inactive) | > 100 µM (inactive) | > 100 µM (inactive) | 35.6 µM (inactive) | > 100 µM (inactive) | > 100 µM (inactive) | 75.5 µM (inactive) | 79.1 µM (inactive) | 47.2 µM (inactive) | > 100 µM (inactive) | > 100 µM (inactive) | > 100 µM (inactive) | > 100 µM (inactive) | > 100 µM (inactive) | > 100 µM (inactive) | > 100 µM (inactive) | –
2 | CC(=O)C1C(=O)N(C(C)C)C[C@@H]2CCC(=O)C[C@H]12 (some centres not stated) | > 100 µM (inactive) | – | > 100 µM (inactive) | – | – | > 100 µM (inactive) | > 100 µM (inactive) | > 100 µM (inactive) | > 100 µM (inactive) | > 100 µM (inactive) | > 100 µM (inactive) | > 100 µM (inactive) | > 100 µM (inactive) | – | > 100 µM (inactive) | – | > 100 µM (inactive) | > 100 µM (inactive) | – | > 100 µM (inactive)
3 | COP(=O)(CC(=O)C1OC(OCc2ccccc2)C(OCc2ccccc2)C(OCc2ccccc2)C1OCc1ccccc1)OC (configuration not stated) | 5.57 µM (inactive) | 17.4 µM (inactive) | 2.62 µM (inactive) | 4.3 µM (inactive) | 23.9 µM (inactive) | 13.3 µM (inactive) | 4.76 µM (inactive) | 12.8 µM (inactive) | 15.3 µM (inactive) | 6.37 µM (inactive) | 4.31 µM (inactive) | 4.24 µM (inactive) | 8.87 µM (inactive) | 17.6 µM (inactive) | 12.5 µM (inactive) | 4.91 µM (inactive) | 3 µM (inactive) | 4.7 µM (inactive) | 22 µM (inactive) | –
4 | COC(=O)C(/C(=N/N)C(=O)Nc1cc(Cl)ccc1Cl)c1nc2ccc([N+](=O)[O-])cc2nc1O (configuration not stated) | > 100 µM (inactive) | – | – | – | – | > 100 µM (inactive) | 25 µM (inactive) | 92.3 µM (inactive) | > 100 µM (inactive) | > 100 µM (inactive) | 2.74 µM (inactive) | > 100 µM (inactive) | > 100 µM (inactive) | > 100 µM (inactive) | > 100 µM (inactive) | > 100 µM (inactive) | > 100 µM (inactive) | – | – | 57.3 µM (inactive)
5 | Nc1n[nH]c2c(C(=O)Nc3ccc(Cl)cc3)c(N)n(N)c(=O)c12 | > 100 µM (inactive) | > 100 µM (inactive) | > 100 µM (inactive) | > 100 µM (inactive) | > 100 µM (inactive) | > 100 µM (inactive) | > 100 µM (inactive) | > 100 µM (inactive) | > 100 µM (inactive) | > 100 µM (inactive) | > 100 µM (inactive) | > 100 µM (inactive) | > 100 µM (inactive) | > 100 µM (inactive) | > 100 µM (inactive) | > 100 µM (inactive) | > 100 µM (inactive) | > 100 µM (inactive) | > 100 µM (inactive) | –
6 | C[As](C)SCC(NC(=O)CCC(N)C(=O)O)C(=O)NCC(=O)O.c1ccncc1 (configuration not stated) | 0.984 µM (active) | 0.168 µM (active) | 0.0471 µM (active) | 0.0938 µM (active) | 0.336 µM (active) | 1.42 µM (inactive) | 0.0492 µM (active) | 0.547 µM (active) | 0.202 µM (active) | 0.902 µM (active) | 0.0266 µM (active) | 2.38 µM (inactive) | 0.0399 µM (active) | 0.436 µM (active) | 0.0891 µM (active) | 0.361 µM (active) | 0.506 µM (active) | 0.0662 µM (active) | 0.0867 µM (active) | –
7 | Nc1ccn(C2(CO)C=C(CO)C(O)C2O)c(=O)n1 (configuration not stated) | > 25.8 µM (inactive) | – | > 25.8 µM (inactive) | – | – | > 25.8 µM (inactive) | – | > 25.8 µM (inactive) | > 25.8 µM (inactive) | > 25.8 µM (inactive) | > 25.8 µM (inactive) | > 25.8 µM (inactive) | > 25.8 µM (inactive) | – | > 25.8 µM (inactive) | > 25.8 µM (inactive) | > 25.8 µM (inactive) | > 25.8 µM (inactive) | – | > 25.8 µM (inactive)
8 | COc1cccc(C2c3cc4c(cc3OC(NNS(=O)(=O)c3ccc(C)cc3)C2C)OCO4)c1OC (configuration not stated) | 2.62 µM (inactive) | 2.2 µM (inactive) | 2.12 µM (inactive) | 3.44 µM (inactive) | 1.83 µM (inactive) | 2.52 µM (inactive) | 2.03 µM (inactive) | 4.3 µM (inactive) | 4.46 µM (inactive) | 2.62 µM (inactive) | 2.12 µM (inactive) | 2.67 µM (inactive) | 1.75 µM (inactive) | 4.82 µM (inactive) | 22.2 µM (inactive) | 2.56 µM (inactive) | 3.2 µM (inactive) | 2.29 µM (inactive) | 2.29 µM (inactive) | –
